Assay results taken from US8372408B2, “Use of Phaeodactylum algae extract for depigmenting the skin” (LVMH Recherche, priority 2007, dated 2013).
Where “and” joins values, the source holds several entries; their conditions need not be identical. Equal values may be shown once. Residues, ends and D or L forms follow the SMILES beside them. *: point of attachment. Cbz = O=C(OCc1ccccc1)*

Key:
[1] = molecular target: T1, proteasome (chymotrypsin-like activity) of MNT1 cells (Homo sapiens, UniProt P28074); experiment: Proteasome LLVY (chymotrypsin-like) activity assay on lyzates of treated MNT1 cells; type: cell-based; details: for Proteasome activity at 72 hours, Chymotrypsin-like: MNT1 cells lyzed 72 hours after treatment, palmitic or linoleic acid 25 μM, Phaeodactylum 5 μg/ml, Mg132 120 nM where stated; for chymotrypsin-like peptidase activity of the proteasome, change in words: 72 hours after addition, MNT-1 melanocytes, FIG. 1A
T1 construct: introduce in duplicate a fixed volume of cell lyzate; endogenous in cells; host or cells: MNT1 human melanocyte line (lysate)
T1 sequence (P28074 60-263): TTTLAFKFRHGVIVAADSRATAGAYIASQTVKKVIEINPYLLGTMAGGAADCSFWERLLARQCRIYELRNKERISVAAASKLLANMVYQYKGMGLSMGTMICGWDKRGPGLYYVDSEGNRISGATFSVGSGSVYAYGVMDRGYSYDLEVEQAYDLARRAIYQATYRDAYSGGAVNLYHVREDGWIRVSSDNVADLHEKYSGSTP
Description: 2.1 Treatment of MNT1 Cells (Human Melanocyte Cell Lines) in Order to Assay the Proteasome and Tyrosinase Activities MNT1, 10^6 cells/dish 35 mm in diameter, in triplicate
Treatment on D1 • Linoleic acid 25 μM • Palmitic acid 25 μM • Phaeodactylum 5 μg/ml +1% BSA+Vitamin E 50 μM+Vitamin C 1 mM • Linoleic acid 25 μM • Palmitic acid 25 μM • Phaeodactylum 5 μg/ml Stirring with a magnetic bar at 37° C. for 1 hour • 2nd treatment on D4 +Cycloheximide 1 μg/ml (protein synthesis inhibitor)
+120 nM Mg132 for the assay of the tyrosinase activity. • Preparation of the lyzates after 4 hours 2 rinses with PBS (phosphate-buffered saline)
On a bed of ice; recovery in 150 μl of lysis buffer by scraping.
Freezing at […]. • Protein assay via the Bradford method • Proteasome activity assay The cells are rinsed twice with PBS and each peptidase activity of the proteasome is then determined by using a fluorogenic peptide substrate specific for each of the activities, in the presence and in the absence of a specific proteasome inhibitor, MG 132 (Leu-Leu-Leucinal). The peptide substrate products are the following: Leu-Leu-Val-Tyr-amc (LLVY-amc) for the chymotrypsin-like activity, Leu-Leu-Glu-na (LLE-na) for the post-glutamic hydrolase activity and Leu-Ser-Thr-Arg-amc (LSTR-amc) for the trypsin-like activity. The principle of the assay consists in monitoring over time the increase in fluorescence due to the release of the fluorophores aminomethylcoumarin or β-naphthylamine from the fluorogenic peptides. […]
a) LLVY activity (chymotrypsin-like) a.1—Principle • Proteasome (LLVY activity • (chymotrypsin-like)) N-Succinyl-LLVY-MCA→N-Succinyl-LLVY+MCA fluorescent Reading with a spectrofluorimeter at an excitation wavelength of 350 nm and an emission wavelength of 440 nm.
The process is performed as follows: • Into a 96-well plate, introduce in duplicate a fixed volume of cell lyzate (determined from the lowest protein concentration of the samples, which should correspond to 20 μg of protein) and make up to 100 μl with TRIS buffer. • Add 100 μl of LLVY-MCA substrate prediluted to 25 μM in the TRIS buffer (12.5 μM final). • take the spectrofluorimeter readings at an excitation wavelength of 355 nm and an emission wavelength of 460 nm with a gain of 40, every 2 minutes for 30 minutes.
The raw results are expressed in F.U./minute, F.U. denoting the values supplied by the machine, expressed in fluorescence units.
The assay is performed on 200 μl of reaction volume containing a volume V of cell lyzate set as a function of the protein concentrations of the lyzates.
From the calibration range, the activity may be expressed as follows, in pmol of MCA released/minute/mg of protein: […]
For the assay of the proteasome activities, the cells were lyzed at 72 hours after the cell treatment, and the protein concentration was determined.

[2] = system: tyrosinase in MNT-1 melanocytes; experiment: Anti-tyrosinase western blot of treated MNT1 cells, bands quantified; type: cell-based, human; details: for amount of tyrosinase, change in words: 24 hours or 72 hours after treatment of MNT-1 melanocytes, FIGS. 4A and 4B; for Quantification of tyrosinase at 24 hours / Quantification of tyrosinase at 72 hours: western blot bands, control = 100 %, palmitic or linoleic acid 25 μM, Phaeodactylum 5 μg/ml, Mg132 120 nM where stated; for Quantification of tyrosinase at 24 hours: MNT1 lyzed at 24 hours; for Quantification of tyrosinase at 72 hours: MNT1 lyzed at 72 hours
Description: 2.2 Treatment of MNT1 in Order to Assay the Proteasome, the Ubiquitin Proteins and the Tyrosinase by Western Blotting
10^6 MNT1 cells/dish 35 mm in diameter, in quadruplicate
Treatment on D1 • Linoleic acid 25 μM • Palmitic acid 25 μM • Phaeodactylum 5 μg/ml
+1% bovine serum albumin (BSA)+Vitamin E (Vitamin E) 50 μM+Vitamin C (Vitamin C) 1 mM • Linoleic acid 25 μM • Palmitic acid 25 μM • Phaeodactylum 5 μg/ml
Preparation of the Lyzates on D2, D3 and D4
Recovery of the cell lawn in 150 μl of Laemmli 2× buffer+1% DTT (10 mM) by scraping.
Electrophoresis of the proteins is performed in a polyacrylamide minigel 1 mm to […] thick, under denaturing and reducing conditions, in batch buffer according to the Laemmli method (1970). The gels containing 12% T, 2.7% C allow separation of the low molecular weight proteins ranging from 20 to 120 kDa. The gels containing 8% T; 2.7% C allow separation of the high molecular weight proteins from 35 to 250 kDa.
Next, this membrane is placed in contact with the primary antibody diluted to the optimum concentration in PBS-T with or without 5% milk (m/v) depending on the antibody, for 1 hour with stirring at room temperature or overnight at 4° C.
Under the action of peroxidase and an amplifier, the luminol is oxidized and goes into a transient excited state. Return to the ground state takes place by emission of photons, which strike an autoradiography film placed on the membrane.
The bands are quantified by means of the Gels Analysts 3.01 software.
Starting with cell extracts of MNT-1 melanocytes cultured under these various conditions, with the protocols defined in the “Materials and methods” section, the effects of the extracts of the alga Phaeodactylum tricornutum on the amount of tyrosinase and of its activity were characterized.

[3] = system: tyrosinase of MNT-1 melanocytes; experiment: Measurement of the tyrosinase (dopa-oxidase) activity in lyzates of treated MNT1 cells; type: cell-based, human; details: for Tyrosinase activity at 72 hours: dopa-oxidase activity at 475 nm, MNT1 lyzed 72 hours after treatment, palmitic or linoleic acid 25 μM, Phaeodactylum 5 μg/ml, Mg132 120 nM where stated
Description: 2.1D: Measurement of the tyrosinase activity
The assay is based on measuring the dopa-oxidase activity of tyrosinase. The principle of the assay is based on the detection of dopachrome, which absorbs at 475 nm on FLUOstar (BMG)
Materials: • Lysis buffer • Substrate: L-DOPA (Sigma, D-9628, MW 197.2) at 10 mM in PBS, prepared extemporaneously due to the autoxidation of L-Dopa.
Human melanocytes in culture were treated with 25 μM of linoleic acid (±120 nM Mg132) or 25 μM of palmitic acid (±120 nM Mg132) or 5 μg/ml of Phaeodactylum (±120 nM Mg132) in MNT1 medium containing 1% BSA, 50 μM vitamin E and 1 mM vitamin C. The melanocytes were recovered and lyzed 72 hours after treatment. 50 μg of extract are then incubated with 1 mM of […] for one hour at 37° C. Measurement of the tyrosinase activity is performed at 475 nm every 2 minutes using a microplate reader thermostatically maintained at 37° C.
The Dopa-oxidase activity is obtained as OD/min/mg of protein. The blank is prepared with lysis buffer in the presence of L-DOPA.

Row | Compound | Proteasome activity at 72 hours, Chymotrypsin-like [1] | amount of tyrosinase, change in words [2] | Quantification of tyrosinase at 24 hours [2] | Quantification of tyrosinase at 72 hours [2] | Tyrosinase activity at 72 hours [3] | chymotrypsin-like peptidase activity of the proteasome, change in words [1] | tyrosinase activity, change in words ([3]; 72 hours after treatment of MNT-1 melanocytes, FIG. 5)
1 | CC(C)C[C@@H](C=O)NC(=O)[C@H](CC(C)C)NC(=O)[C@H](CC(C)C)NC(=O)OCc1ccccc1 [Control + Mg132, Z-Leu-Leu-Leu-CHO] (Cbz-Leu-Leu-Leu-aldehyde) | 3 ± 0.3 pmol/min/mg | this decrease may be reversed | 100% | 100% | 18.35 ± 1.55 OD/min |  | 
2 | CCCCC/C=C\C/C=C\CCCCCCCC(=O)O [Linoleic acid] | 6.3 ± 0.37 pmol/min/mg | significant decrease | 75% and 51% | 13% and 22% | 9.65 ± 2 OD/min | increase and do so significantly | significant decrease
3 | CCCCCCCCCCCCCCCC(=O)O [Palmitic acid] | 3 ± 0.37 pmol/min/mg |  | 135% and 127% | 62% and 88% | 18.75 ± 1.9 OD/min | reduced | 
